Measurements: patent publication US20240026261A1, “ENGINEERING OF ORGANOID CULTURE FOR ENHANCED ORGANOGENESIS IN A DISH” (THE TRUSTEES OF THE UNIVERSITY OF PENNSYLVANIA, priority 2020, published 2024)

Assays:
Type in all cases: cell-based, mouse
intestinal organoids = assay: Intracellular calcium imaging (Fluo-4) of intestinal organoids
Experimental: To assess the level of intracellular calcium, the organoids were labeled with a fluorescent calcium indicator dye (Fluo-4) and monitored their fluorescence in real-time. Given the multicellular complexity of organoids, the mean fluorescence intensity was measured from representative organoids selected for analysis. Upon treatment with 100 μM ATP, organoids in the device increased their fluorescence by approximately 1.6-fold within 60 seconds, which was followed by a gradual decrease to the baseline level (FIG. 4E).
For calcium imaging, the organoid media were removed from the culture wells, and the organoid constructs were washed once in live-cell imaging solution (LCIS). The organoids were then loaded with Fluo-4 calcium imaging solution (F10489, ThermoFisher Scientific, USA) prepared according to the manufacturer's protocol. The samples were incubated at 37° C. for 30 minutes, which was followed by another 30-minute incubation at room temperature. Subsequently, the Fluo-4 solution was removed, and the organoids were washed once with LCIS. All samples were kept in fresh LCIS until use. An inverted epi-fluorescence microscope (Axio Observer D1, Zeiss, Germany) was used to visualize calcium staining of organoids upon stimulation with 100 μM of ATP (A1852, Sigma, USA) and 50 mM of glucose (G7021, Sigma, USA).
For ratiometric analysis of changes in Ca2+ levels, fluorescence intensity for each or-ganoid was measured during an experiment, and values were normalized by their resting intensities using the equation below.
ΔCa^2+=(F−Frest)/Frest (1)

[1] = tested on: co-culture of intestinal organoids and primary intestinal fibroblasts (αSMA); assay: TGF-β-induced intestinal fibrosis model in OCTOPUS, αSMA immunofluorescence (fibroblast activation); conditions: for increase in level of αSMA expression in comparison to untreated tissues: TGF-β 1 ng/ml from day 5
From the text: To this end, OCTOPUS was used to set up a co-culture of intestinal organoids and primary intestinal fibroblasts in the same hydrogel scaffold and generate a multicellular construct reminiscent of the intestinal epithelium and its underlying stroma in vivo (FIG. 6A). In this mixed co-culture configuration, the intestinal progenitor cells embedded in Matrigel developed into or-ganoids over the course of 5 days or so, during which fibroblasts began to spread and proliferate around the nascent organoids. […] Prolonged culture in this device led to the formation of microtissues densely populated with enlarged organoids and fibroblasts (FIG. 6C).
(§1) To simulate the scenario of using this system to assess intestinal fibrosis in a conventional laboratory setting, a common technique widely used for in vitro modeling of fibrosis, which was to treat the co-culture construct with transforming growth factor (TGF)-β, were used. TGF-β plays a central role in the pathogenesis of fibrosis in the intestine and other organs by inducing the activation of fibroblasts and their transdifferentiation into myofibroblasts, which are the key effector cells that drive fibrogenesis. To trigger fibrogenic responses, the model was treated with TGF-β at 1 ng/ml from day 5 to day 12. Exposure of the intestinal microtissue to this condition indeed caused the fibroblasts to acquire the contractile phenotype of myofibroblasts, as evidenced by robust expression of alpha-smooth muscle actin (αSMA) (FIG. 6D). In comparison to untreated tissues, the level of expression increased by more than 1.9- and 2.9-fold by day 8 and day 12, respectively (FIG. 6E).
(§2) First, fibrotic intestinal tissue constructs in OCTOPUS were generated by forming co-culture organoids over 5 days and exposing them to TGF-β for another 7 days as described above (day 5-day 12). These constructs were then treated with clinically relevant concentrations of the drugs for 48 hours (day 13-day 14) within the therapeutic window identified by viability assessment (data not shown). […] At 0.1 mM, Pirfenidone was effective for altering the contractile phenotype of fibroblasts, as illustrated by 50% reduction in αSMA compared to the untreated control (FIGS. 6L to 6O).
(§3) To form an intestinal fibrosis model suitable for, e.g. drug testing, in OCTOPUS, mouse intestinal stem cells were mixed with 1×10^6 cells/ml of mouse intestinal fibroblasts in Matrigel (356255, Corning, USA). This cell-containing hydrogel solution was injected into the device to form microtissue constructs in the organoid culture chambers. After gelation for 15 minutes in a regular cell culture incubator, 750 μl of IntestiCult™ organoid growth medium (06005, STEMCELL Technologies, Canada) was added into each well and maintained for 5 days to induce intestinal organoid development and fibroblast proliferation. During this period, the media were replenished every other day. To induce fibrosis, 1 ng/ml of TGF-β (T5050, Sigma, USA) was added to the culture wells on day 5 and maintained for additional 7 days. Drug administration occurred on day 12 using commercially available Pirfenidone (P1871, TCI America, USA) and Nintedanib (S1010, Selleckchem, USA) at specified concentrations. The fibrosis model was treated with drugs for 48 hours, after which changes in its fibrotic phenotype were analyzed using the methods described herein.
(§4) For immunofluorescence staining, cells in OCTOPUS were washed with PBS twice, fixed with 4% paraformaldehyde (Electron Microscopy Sciences, USA) for 15 minutes at room temperature, and washed again twice with PBS. The cells were then permeabilized with 0.1% Triton X-100 (Sigma) in PBS for 3 minutes and exposed to blocking buffer composed of PBS and 3% bovine serum albumin (BSA; Sigma) for overnight at 4° C. […]

[2] = tested on: co-culture of intestinal organoids and primary intestinal fibroblasts (fibronectin); assay: Intestinal fibrosis model in OCTOPUS, fibronectin (FN) deposition by immunofluorescence
From the text: (§5) The difference between the two groups became evident within 3 days of treatment and remained statistically significant throughout the culture period (FIG. 6I). […] Consistent with the analysis of fibroblast activation and proliferation (FIG. 6E, FIG. 6F), from the comparison between co-culture and monoculture models, intestinal organoids potentiate the fibrogenic effect of TGF-β and promote FN production by fibroblasts (FIG. 6I, FIG. 6J) were identified.
as §2, §3, §4

[3] = tested on: co-culture of intestinal organoids and primary intestinal fibroblasts (released fibronectin); assay: Intestinal fibrosis model in OCTOPUS, released fibronectin by ELISA of conditioned media
From the text: as §5, §2
For the analysis of fibronectin production in the intestinal fibrosis model, a mouse fibronectin ELISA kit (ab108849, abcam, USA) was used. The media in the wells were collected at specified time points and assayed using manufacturer-provided protocols. First, 50 μl of standard or device-collected samples were added into each well and incubated for 2 hours at room temperature. Subsequently, the wells were washed 5 times with 300 μl of wash buffer solution and then incubated with fibronectin antibody for 1 hour. […]
For all ELISA assays, a multimode plate reader (M200, Tecan, Switzerland) was used to measure the optical density of samples. […]
(§6) To form an intestinal fibrosis model suitable for, e.g. drug testing, in OCTOPUS, mouse intestinal stem cells were mixed with 1×10^6 cells/ml of mouse intestinal fibroblasts in Matrigel (356255, Corning, USA). […] The fibrosis model was treated with drugs for 48 hours, after which changes in its fibrotic phenotype were analyzed using the methods described herein.

[4] = tested on: co-culture microtissues of intestinal organoids and fibroblasts; assay: Intestinal fibrosis model in OCTOPUS, tissue stiffness by atomic force microscopy; conditions: for stiffness of the TGF-β-treated fibrotic tissues (AFM): administered at higher doses
Experimental: To further validate the fibrotic phenotype of the model, the stiffness of the TGF-β-treated microtissues was measured by using atomic force microscopy (AFM). This measurement was greatly facilitated by the open-top design of OCTOPUS that allowed direct access of the AFM probe to the tissue constructs in the culture chambers (FIG. 6K). […] As expected, treatment of this model with TGF-01 led to a marked increase in the extent of tissue stiffening and generated co-culture constructs that were 2.9 times stiffer than those in the untreated devices (FIG. 6K).
The average stiffness measured in the fibrosis model treated with 0.5 mM Pirfenidone (3.5 kPa) closely matched that of normal tissue constructs (3.3 kPa), illustrating the potential of Pirfenidone to normalize the mechanical property of fibrotic intestinal tissues in the model system.
as §3
Atomic force microscopy (AFM, MFP-3D-BIO, Asylum) was used to measure the stiffness of hydrated microtissues in the intestinal fibrosis models. A gold-coated cantilever (SCONT tip, NANOSENSORS) with a spring constant of 14.58 pN/nm and a pyramid indenter was used to obtain force-indentation curves. The tissue samples in the open chambers were used directly without any modification. For the AFM measurement, the OCTOPUS insert containing microtissue was removed from the plate and mounted on the instrument. After wetting the microtissue with a drop of PBS, its mechanical property was measured with the scanning probe. Young's modulus was calculated from the force indentation data using the Atomic J software.

[5] = tested on: primary intestinal fibroblasts co-cultured with intestinal organoids; assay: Intestinal fibrosis model in OCTOPUS, fibroblast proliferation; conditions: TGF-β 1 ng/ml from day 5; by day 12
From the text: as §1, §6

[6] = 0.5 μM, 48 hours, to levels comparable to Pirfenidone at 0.5 mM
[7] = higher-dose (0.5 mM) treatment, 48 hours

Nc1ncnc2c1ncn2[C@@H]1O[C@H](COP(=O)(O)OP(=O)(O)OP(=O)(O)O)[C@@H](O)[C@H]1O [ATP]
calcium response of the conventional model (Matrigel drop) (intestinal organoids; 100 μM, hydrogel drop culture, versus OCTOPUS): noticeably slower and occurred to a lesser extent | increase in Fluo-4 fluorescence (intracellular calcium) (intestinal organoids; 100 μM, organoids in OCTOPUS, within 60 seconds): approximately 1.6 fold

O=C[C@H](O)[C@@H](O)[C@H](O)[C@H](O)CO [D-glucose]
increase in intracellular calcium in OCTOPUS (intestinal organoids; 50 mM, organoids in OCTOPUS): greater than that induced by ATP stimulation

COC(=O)c1ccc2c(c1)NC(=O)/C2=C(\Nc1ccc(N(C)C(=O)CN2CCN(C)CC2)cc1)c1ccccc1 [Nintedanib]
fibroblast activation (αSMA) [1, 6]: decreased substantially | effects on the fibrosis model (αSMA, FN) ([1]; lower dose 0.1 μM, 48 hours): failed to exert significant effects | FN accumulation [2, 6]: decreased substantially | concomitant reduction in the concentration of released FN (ELISA) ([3]; 0.5 μM, 48 hours): not observed | stiffness of the TGF-β-treated fibrotic tissues (AFM) ([4]; 48 hours): significantly decreased

Cc1ccc(=O)n(-c2ccccc2)c1 [Pirfenidone]
reduction in αSMA compared to the untreated control ([1]; 0.1 mM, 48 hours, TGF-β-induced fibrotic constructs): 50% | expression of αSMA ([1]; dose increased to 0.5 mM, 48 hours): further decreased | level of αSMA expression versus normal group (healthy intestinal tissue) [1, 7]: statistically indistinguishable | immunofluorescence of FN in drug-treated fibrotic constructs ([2]; 48 hours treatment): significantly decreased | level of FN production versus normal group (healthy intestinal tissue) [2, 7]: statistically indistinguishable | amount of FN released from the model (ELISA) ([3]; 48 hours treatment): reduced | average stiffness of the treated fibrosis model ([4]; 0.5 mM, 48 hours, normal tissue constructs 3.3 kPa): 3.5 kPa | stiffness of the TGF-β-treated fibrotic tissues (AFM) ([4]; 48 hours): significantly decreased

transforming growth factor (TGF)-β [TGF-β]
increase in level of αSMA expression in comparison to untreated tissues ([1]; by day 8): more than 1.9 fold | increase in level of αSMA expression in comparison to untreated tissues ([1]; by day 12): > 2.9 fold | fibroblast proliferation, cells compared to the untreated control group [5]: approximately twice as many cells | FN in the pericellular regions of fibroblasts (immunostaining) compared to untreated tissues ([2]; TGF-β 1 ng/ml, day 5 to day 12): substantially increased | released FN (ELISA of conditioned media) ([3]; TGF-β 1 ng/ml, day 5 to day 12): higher levels of released FN | average tissue stiffness ([4]; TGF-β-treated co-culture constructs, AFM): 10.1 kPa | stiffness of co-culture constructs relative to untreated devices ([4]; TGF-β-treated, AFM, 14 days culture): 2.9 times
